These are literature values, as cited in US7074797B2, “Pyrazolopyrimidines as CRF receptor antagonists” (Neurocrine Biosciences, Inc., priority 1996, dated 2006).

No end group written: not given here.

In data set [1] the test system is Rats. As to conditions: central administration.
Data set [2] concerns Rats. The settings on record: ICV, animals previously familiarized with the apparatus, fifteen minute session.

On to “CRF: corticotropin-releasing factor, a 41-amino acid peptide (SEEPPISLDLTFHLLREVLEMARAEQLAQQAHSNRKLMEII-NH2; ends and bridges not checked; UniProt P06850 154-194, looked up)”, for which, in the data set with Rats [1], the “exploration in the elevated plus maze” value was “suppresses exploration”. For the same substance, in the data set with Rats [2], the “latency to emerge from the small chamber” value is reported as “increases” and the “mean time spent in the chamber” value is “increases”.
